In patent US9486474B2, “Interstitial therapy for immediate symptom relief and chronic therapy in interstitial cystitis” (THE REGENTS OF THE UNIVERSITY OF CALIFORNIA, priority 2004, dated 2016):

Experiments:
IC patients [1] = conditions: intravesical DMSO therapy; cited from earlier work
IC patients [2] = experiment: heparin versus PPS in the intravesical therapeutic solution (preliminary data); format: in vivo, human
Source text: Data from preliminary studies for one embodiment of an intravesical therapeutic solution can provide immediate temporary relief of the symptoms of urgency and pain in IC patients [Dell and Parsons, Abstract presented at NIDDK/Interstitial Cystitis Association Symposium, Research Insights into Interstitial Cystitis, Alexandria, Va., (Oct. 30-Nov. 1, 2003); Davis, et al. Abstract presented at NIDDK/Interstitial Cystitis Association Symposium, Research Insights into Interstitial Cystitis, Alexandria, Va. (Oct. 30-Nov. 1, 2003); Parsons, Contemp Urol 15: 22-24, 27-28, 31-32, 35 (2003)]. One of the methods of the present invention combines heparin and lidocaine buffered with sodium bicarbonate to pH >8.0 via direct catheter delivery to the bladder, providing immediate and long term pain relief for chronic IC sufferers. In some embodiments, the solution contains 10,000-40,000 units of heparin. In some embodiments, heparin is replaced by 100-200 mg PPS (the contents of an oral capsule dissolved in 10 mL buffered normal saline), 10 mL 1% lidocaine or 16 mL 2% lidocaine, and 3 mL 8.4% sodium bicarbonate (w/v). The solution is instilled into the empty bladder and retained for approximately 30 minutes. The principal difference between this therapeutic solution and other such solutions is the presence of sodium bicarbonate, which dramatically increases the absorption of the lidocaine. […]

IC = conditions: oral PPS, after 8 to 12 months of therapy; cited from earlier work

Compound	IC patients treated who benefit (IC patients [1])	efficacy in the therapeutic solution, heparin compared with PPS (IC patients [2])	response rate (IC)
C[S+](C)[O-] [DMSO, dimethylsulfoxide]	approximately 50%	–	–
heparin	–	equal efficacy	–
pentosan polysulfate sodium [PPS]	–	equal efficacy	approximately 70%
